Laboratory results published in ChEMBL document CHEMBL3243968, “Effects of molecular modification on hypocholesteremic activity of 1,3-bis(substituted phenoxy)-2-propanones and related derivatives” (J Med Chem, 1978).

Key:
Rattus norvegicus [1] = experiment: Toxicity in Sprague-Dawley rat at 10 mg/kg/day, po; assay type: organism-based; set-up: route oral; conditions: in vivo
Rattus norvegicus [2] = experiment: Estrogenic activity in Sprague-Dawley rat at 10 mg/kg/day, po; assay type: ADME, organism-based; set-up: route oral; conditions: in vivo
Rattus norvegicus [3] = experiment: Toxicity in Sprague-Dawley rat at 10 mg/kg/day, po administered for 4 days; assay type: organism-based; set-up: route oral; conditions: in vivo, 96 h
Rattus norvegicus [4] = experiment: Toxicity in Sprague-Dawley rat at 10 mg/kg/day, po administered for 10 days; assay type: organism-based; set-up: route oral; conditions: in vivo, 240 h
Rattus norvegicus [5] = experiment: Toxicity in Sprague-Dawley rat at 10 mg/kg/day, po administered for 16 days; assay type: organism-based; set-up: route oral; conditions: in vivo, 384 h
[6] = 1-Octanol-water partition coefficient, log P of the compound by UV spectrophotometer; assay type: physicochemical

SMILES: CC(=O)COc1ccc(C)cc1
- Activity (Rattus norvegicus [1]): Non-toxic
- Activity (Rattus norvegicus [2]): Non-toxic

SMILES: CC(=O)COc1ccc([N+](=O)[O-])cc1
- Activity (Rattus norvegicus [1]): Non-toxic
- Activity (Rattus norvegicus [2]): Non-toxic

SMILES: O=C(COc1ccc(Cl)c2ccccc12)COc1ccc(Cl)c2ccccc12
- Activity (Rattus norvegicus [1]): Non-toxic
- Activity (Rattus norvegicus [2]): Non-toxic

SMILES: O=C(COc1ccc(-c2ccccc2)cc1)COc1ccc(-c2ccccc2)cc1
- Activity (Rattus norvegicus [1]): Non-toxic
- Activity (Rattus norvegicus [2]): Non-toxic

SMILES: COc1cccc(OCC(=O)COc2cccc(OC)c2)c1
- Activity (Rattus norvegicus [1]): Non-toxic
- Activity (Rattus norvegicus [2]): Non-toxic

SMILES: O=C(COc1ccc2c(c1)CCC2)COc1ccc2c(c1)CCC2
- Activity (Rattus norvegicus [1]): Non-toxic
- Activity (Rattus norvegicus [2]): Non-toxic

SMILES: CCCCCCCCCCCCCCC(=O)COc1ccc(C)cc1
- Activity (Rattus norvegicus [1]): Non-toxic
- Activity (Rattus norvegicus [2]): Non-toxic

SMILES: CCCCCCCCCCCCCCCCCCOCC(=O)COc1ccc(C)cc1
- Activity (Rattus norvegicus [1]): Non-toxic
- Activity (Rattus norvegicus [2]): Non-toxic

SMILES: Cc1ccccc1OCC(=O)COC(=O)c1ccc(Cl)cc1
- Activity (Rattus norvegicus [1]): Non-toxic
- Activity (Rattus norvegicus [2]): Non-toxic

SMILES: O=C(COc1ccc([N+](=O)[O-])cc1)COc1ccc([N+](=O)[O-])cc1
- Activity (Rattus norvegicus [1]): Non-toxic
- Activity (Rattus norvegicus [2]): Non-toxic

SMILES: O=C(CCl)COc1ccc([N+](=O)[O-])cc1
- Activity (Rattus norvegicus [3]): Toxic
- Activity (Rattus norvegicus [4]): Toxic
- Activity (Rattus norvegicus [2]): Non-toxic
- Activity (Rattus norvegicus [5]): Toxic

SMILES: O=C(CCl)COc1cccc2ccccc12
- Activity (Rattus norvegicus [1]): Non-toxic
- Activity (Rattus norvegicus [2]): Non-toxic

SMILES: CCCCCOCC(=O)COCCCCC
- Activity (Rattus norvegicus [1]): Non-toxic
- Activity (Rattus norvegicus [2]): Non-toxic

SMILES: CCOC(=O)CC(=O)COc1ccc(C)cc1
- Activity (Rattus norvegicus [1]): Non-toxic
- Activity (Rattus norvegicus [2]): Non-toxic

SMILES: Cc1ccc(OCC2CO2)cc1 (stereo unspecified)
- Activity (Rattus norvegicus [1]): Non-toxic
- Activity (Rattus norvegicus [2]): Non-toxic
- logP [6]: 2.69

SMILES: CCOC(COc1cc(C)c(C)cc1Cl)(COc1cc(C)c(C)cc1Cl)OCC
- Activity (Rattus norvegicus [1]): Non-toxic
- Activity (Rattus norvegicus [2]): Non-toxic
- logP [6]: 2.69

SMILES: Cc1ccc(OC(C)C(=O)C(C)Oc2ccc(C)cc2)cc1 (stereo unspecified)
- Activity (Rattus norvegicus [1]): Non-toxic
- Activity (Rattus norvegicus [2]): Non-toxic

SMILES: Cc1ccc(OCC(=O)CO)cc1
- Activity (Rattus norvegicus [1]): Non-toxic
- Activity (Rattus norvegicus [2]): Non-toxic

SMILES: CCCCCCCCCCCCC(OC(C)=O)S(C)(=O)=O (stereo unspecified)
- Activity (Rattus norvegicus [1]): Non-toxic
- Activity (Rattus norvegicus [2]): Non-toxic

SMILES: O=C(COc1ccccc1)COc1ccccc1
- logP [6]: < 2.69

SMILES: COc1ccccc1OCC(=O)COc1ccccc1OC
- logP [6]: < 2.69

SMILES: CCOC(=O)C(C)(C)Oc1ccc(Cl)cc1 [CLOFIBRATE]
- Activity (Rattus norvegicus [1]): Non-toxic
- Activity (Rattus norvegicus [2]): Non-toxic
